Consider three molecules from patent US11535599B2, “Benzisoxazole derivative” (Sumitomo Pharma Co., Ltd., priority 2020, dated 2022).

In assay [1] the test system is mouse elevated plus maze. The assay can be described thus: Anxiolytic-like action, mouse elevated plus maze. It counts as in vivo. Particulars: Example 13 at 10 mg/kg or more oral; diazepam 3 mg/kg oral. The method, then: In Parkinson's disease, psychiatric symptom (e.g. depression, anxiety) is known as one of its non-motor symptoms. The anxiolytic-like action of the present invention was evaluated with mouse elevated plus maze. The present test is broadly used as a method for evaluating the anxiolytic-like action of agents.
In the present test, male Crl: CD1 (ICR) mice (CHARLES RIVER LABORATORIES JAPAN, INC.) were used. One hour before the test was started, the solvent, the compound of Example 13 (3 mg/kg, 10 mg/kg, 30 mg/kg, or 100 mg/kg), or diazepam (3 mg/kg) which is a positive control was orally administered to the mouse. The mouse was put into a center platform in which the illuminance was adjusted to 80-100 Lux level. The head of the mouse was set toward the closed arm, and then the test was started. The mouse was allowed to explore freely for 5 minutes. When ⅓ of the mouse's body entered the arm, the behavior was counted as arm entry. And, the time spent in the open arm was also measured with a stopwatch. The ratio of the count of the open arm entry per the count of the all arm entry, and the ratio of the time spent in the open arm per the total exploration time (5 minutes) were calculated. […] Thus, the ratio of the count of the open arm entry per the count of the all arm entry, and the ratio of the time spent in the open arm per the total exploration time tend to be small values. When these ratios in the drug administration group are higher than those of the solvent administration group, it can be judged that the drug has anxiolytic-like action.

The target in assay [2] is Rat striatum MAOB (Rattus norvegicus (Rat), UniProt P19643). The assay can be described thus: Activity for inhibiting monoamine oxidase B (MAOB). It counts as biochemical. Particulars: [14C] β-PEA substrate; read-out: Rat striatum MAOB IC50. Here is the method: MAOB is an enzyme involved in oxidative de-amino acid reaction of an endogenous monoamine neurotransmitter such as dopamine. […] The effect of the present compounds for inhibiting MAOB in rat striatum and simian striatum was tested.
Mitochondria⋅synaptosome fraction containing MAOB was prepared according to the following procedure. To striata of male Slc: Wistar rat (Japan SLC, Inc.) or male cynomolgus monkey (HAMRI CO., LTD.) was added 0.32 mol/L aqueous sucrose by 10 mL per 1 gram as wet weight of the tissue, and the mixture was homogenized. The homogenate was centrifuged at 4° C. at 1,000 g for 10 minutes, and the obtained supernatant was centrifuged again at 4° C. at 17,200 g for 20 minutes. To the obtained precipitate was added a prepared buffer solution (10 mmol/L Tris-HCl buffer solution (pH 7.4), 0.25 mol/L aqueous sucrose, 0.5 mmol/L EDTA-2K) by 10 mL per 1 gram as wet weight of the original tissue, and the mixture was centrifuged again at 4° C. at 17,200 g for 20 minutes. To the obtained precipitate was added the prepared buffer solution by 40 mL per 1 gram as wet weight of the original tissue. The mixture was suspended to be used as an enzyme homogenate solution.
As a substance to be degraded by MAOB, ^14C-labeled β-phenylethylamine ([^14C] β-PEA) was used. [^14C] β-PEA and the present compound solution diluted to each concentration were incubated with the enzyme homogenate solution at 37° C. for a given period, and then the reaction was stopped by adding 3 mol/L cold HCl thereto. The reaction product was extracted with a mixture of water-saturated toluene and ethyl acetate (1:1). The supernatant organic layer was separated, a liquid scintillation cocktail (ACSII, GE Healthcare) was added to the separated organic layer, and the radioactivity was measured with a liquid scintillation counter (TRI-CARB 3100TR, Packard). The IC50 value of each compound was determined based on two parameter logistic model with the inhibitory data of each concentration, said data were obtained from plural trials.

Assay [3] deals with unilateral lesion model of nigrostriatal dopamine neuron induced with 6-OHDA. Put plainly: Extending duration of levodopa-induced rotational behavior in 6-OHDA unilateral lesion model. It is filed as in vivo, rat. The following applies: Examples 10 or 30 mg/kg oral; rasagiline 0.6 mg/kg; with levodopa 5 mg/kg i.p.
The target of assay [4] is human CA-II (Homo sapiens (Human), UniProt P00918). Put plainly: Activity for inhibiting carbonic anhydrase (CA). Particulars: 4-nitrophenyl acetate substrate. It is filed as biochemical. Here is the method: CA is a zinc metalloenzyme family which catalyzes reversible hydration between carbon dioxide, and bicarbonate and proton.
As a substance for decomposition by CA-II, 4-nitrophenyl acetate was used herein. 4-Nitrophenyl acetate is […] with CA-II to produce 4-nitrophenol. […] To the diluted solution were added […] (final concentration: 5 mmol/L) and the present compound of each concentration, and the mixture was incubated at 37° C. under shading for 30 minutes. […] The IC50 of the compound was obtained through the two-parameter logistic model with the inhibitory rate data in each concentration which was obtained from plural trials.

Assay [5] relates to harmaline-induced essential tremor model. Put plainly: Anti-tremor effect in harmaline-induced essential tremor model. It is filed as in vivo, mouse. Particulars: Examples 1, 13: 25 or 50 mg/kg, Example 14: 3.125-25 mg/kg oral; β-propranolol 10 mg/kg i.p. Here is the method: As an animal model of essential tremor, an animal administrated with harmaline is broadly used in its evaluation test. […] The effect of the present compounds for harmaline-acute-administration-induced tremor was studied. To male Crl: CD1 mice (6-7 weeks old) (CHARLES RIVER LABORATORIES JAPAN, INC.), harmaline (30 mg/kg) was intraperitoneally administered to induce tremor. The present compound (Example 1 (25 mg/kg or 50 mg/kg), Example 13 (25 mg/kg or 50 mg/kg), or Example 14 (3.125 mg/kg, 6.25 mg/kg, 12.5 mg/kg, or 25 mg/kg)) was orally administered to the mouse one hour before the administration of harmaline. And, saline or β-propranolol (10 mg/kg) which is a positive control compound was intraperitoneally administered to the mouse 20 minutes before the administration of harmaline. 35 minutes before the administration of harmaline, the mouse was put into a measurement cage (an acrylic cylinder set in a horizontal direction, φ 65 mm, length 145 mm), one cage to one mouse, said measurement cage was in a soundproof box of a startle response instrument (O'hara & Co., Ltd., Tokyo). The trembling that the mouse gave were recorded over time as tremor data. The animal was put into cage, and the data were recorded for 20 minutes just before (PRE) and just after (POST) the administration of harmaline. The time-series signal data were analyzed about frequency with an analysis software, VitalTracer and BIMUTAS II-A (both, Kissei Comtech Co., Ltd., Matsumoto-shi). At 12-15 Hz or 12-18 Hz as a frequency which increases with tremor, the spectrum amounts were extracted, and the tremor intensity T of each subject was calculated according to the following formula. T=POST/PRE

In assay [6] the target is human Cav3.1 (Homo sapiens (Human), UniProt O43497). The assay can be described thus: T-type calcium channel inhibitory activity, whole-cell patch-clamp with HEK293 cell. It is filed as cell-based. Here is the method: (§1) The inhibitory activity of the present compounds for T-type calcium channel was measured by whole-cell patch-clamp method with HEK293 cell (vendor of HEK 293 cell: ATCC, Manassas, Va., USA, builder of expressing cell: ChanTest Corporation., Cleveland, Ohio, USA), in which human Cav3.1, human Cav3.2, or human Cav3.3 is expressed. The culture medium used for HEK293 cell was prepared by adding fetal bovine serum (10%), sodium penicillin G (100 U/mL), streptomycin sulfate (100 μg/mL), and G418 (500 μg/mL) to a mixture medium of Dulbecco's modified Eagle's medium/Ham's F-12 medium. The whole-cell current was evaluated with IonWorks Barracuda system and Population Patch Clamp (both are provided by Molecular Device Corporation, Union City, Calif., USA). The extracellular recording solution used during the recording was Hanks' balanced salt solution. The internal recording solution used herein was 50 mmol/L CsCl, 90 mmol/L CsF, 5 mmol/L MgCl2, 1 mmol/L glycol ether diamine tetraacetic acid (EGTA), and 10 mmol/L 4-(2-hydroxyethyl)piperazine-1-ethanesulfonic acid (HEPES (pH 7.2). The holding voltage was held at −90 mV, then changed to −65 mV. 60 seconds later, −20 mV pulse was added thereto for 200 millisecond to activate the channel on plasma membrane and generate calcium current. The calcium current was recorded with an amplifier of IonWorks Barracuda system, and analyzed with a program of the system (Version 2.0.2). The record of the calcium current was obtained twice, before and after the addition of the compound. In the measurement after adding the compound, the cells were exposed to the recording solution containing the compound for more than 5 minutes and then the current was measured. In the analyses, the ratio of current readout after the compound addition per current readout before the compound addition was calculated, the calculated value was subtracted from one, and the obtained value was converted to percentage. […] The value obtained from each compound was canonicalized based on the two ends of values to obtain each inhibitory rate. The positive control compound used herein was TTA-A2 which is known as T-type calcium channel inhibitor. IC50 value was calculated with Hill equation.
human Cav3.1, sequence (O43497 whole entry): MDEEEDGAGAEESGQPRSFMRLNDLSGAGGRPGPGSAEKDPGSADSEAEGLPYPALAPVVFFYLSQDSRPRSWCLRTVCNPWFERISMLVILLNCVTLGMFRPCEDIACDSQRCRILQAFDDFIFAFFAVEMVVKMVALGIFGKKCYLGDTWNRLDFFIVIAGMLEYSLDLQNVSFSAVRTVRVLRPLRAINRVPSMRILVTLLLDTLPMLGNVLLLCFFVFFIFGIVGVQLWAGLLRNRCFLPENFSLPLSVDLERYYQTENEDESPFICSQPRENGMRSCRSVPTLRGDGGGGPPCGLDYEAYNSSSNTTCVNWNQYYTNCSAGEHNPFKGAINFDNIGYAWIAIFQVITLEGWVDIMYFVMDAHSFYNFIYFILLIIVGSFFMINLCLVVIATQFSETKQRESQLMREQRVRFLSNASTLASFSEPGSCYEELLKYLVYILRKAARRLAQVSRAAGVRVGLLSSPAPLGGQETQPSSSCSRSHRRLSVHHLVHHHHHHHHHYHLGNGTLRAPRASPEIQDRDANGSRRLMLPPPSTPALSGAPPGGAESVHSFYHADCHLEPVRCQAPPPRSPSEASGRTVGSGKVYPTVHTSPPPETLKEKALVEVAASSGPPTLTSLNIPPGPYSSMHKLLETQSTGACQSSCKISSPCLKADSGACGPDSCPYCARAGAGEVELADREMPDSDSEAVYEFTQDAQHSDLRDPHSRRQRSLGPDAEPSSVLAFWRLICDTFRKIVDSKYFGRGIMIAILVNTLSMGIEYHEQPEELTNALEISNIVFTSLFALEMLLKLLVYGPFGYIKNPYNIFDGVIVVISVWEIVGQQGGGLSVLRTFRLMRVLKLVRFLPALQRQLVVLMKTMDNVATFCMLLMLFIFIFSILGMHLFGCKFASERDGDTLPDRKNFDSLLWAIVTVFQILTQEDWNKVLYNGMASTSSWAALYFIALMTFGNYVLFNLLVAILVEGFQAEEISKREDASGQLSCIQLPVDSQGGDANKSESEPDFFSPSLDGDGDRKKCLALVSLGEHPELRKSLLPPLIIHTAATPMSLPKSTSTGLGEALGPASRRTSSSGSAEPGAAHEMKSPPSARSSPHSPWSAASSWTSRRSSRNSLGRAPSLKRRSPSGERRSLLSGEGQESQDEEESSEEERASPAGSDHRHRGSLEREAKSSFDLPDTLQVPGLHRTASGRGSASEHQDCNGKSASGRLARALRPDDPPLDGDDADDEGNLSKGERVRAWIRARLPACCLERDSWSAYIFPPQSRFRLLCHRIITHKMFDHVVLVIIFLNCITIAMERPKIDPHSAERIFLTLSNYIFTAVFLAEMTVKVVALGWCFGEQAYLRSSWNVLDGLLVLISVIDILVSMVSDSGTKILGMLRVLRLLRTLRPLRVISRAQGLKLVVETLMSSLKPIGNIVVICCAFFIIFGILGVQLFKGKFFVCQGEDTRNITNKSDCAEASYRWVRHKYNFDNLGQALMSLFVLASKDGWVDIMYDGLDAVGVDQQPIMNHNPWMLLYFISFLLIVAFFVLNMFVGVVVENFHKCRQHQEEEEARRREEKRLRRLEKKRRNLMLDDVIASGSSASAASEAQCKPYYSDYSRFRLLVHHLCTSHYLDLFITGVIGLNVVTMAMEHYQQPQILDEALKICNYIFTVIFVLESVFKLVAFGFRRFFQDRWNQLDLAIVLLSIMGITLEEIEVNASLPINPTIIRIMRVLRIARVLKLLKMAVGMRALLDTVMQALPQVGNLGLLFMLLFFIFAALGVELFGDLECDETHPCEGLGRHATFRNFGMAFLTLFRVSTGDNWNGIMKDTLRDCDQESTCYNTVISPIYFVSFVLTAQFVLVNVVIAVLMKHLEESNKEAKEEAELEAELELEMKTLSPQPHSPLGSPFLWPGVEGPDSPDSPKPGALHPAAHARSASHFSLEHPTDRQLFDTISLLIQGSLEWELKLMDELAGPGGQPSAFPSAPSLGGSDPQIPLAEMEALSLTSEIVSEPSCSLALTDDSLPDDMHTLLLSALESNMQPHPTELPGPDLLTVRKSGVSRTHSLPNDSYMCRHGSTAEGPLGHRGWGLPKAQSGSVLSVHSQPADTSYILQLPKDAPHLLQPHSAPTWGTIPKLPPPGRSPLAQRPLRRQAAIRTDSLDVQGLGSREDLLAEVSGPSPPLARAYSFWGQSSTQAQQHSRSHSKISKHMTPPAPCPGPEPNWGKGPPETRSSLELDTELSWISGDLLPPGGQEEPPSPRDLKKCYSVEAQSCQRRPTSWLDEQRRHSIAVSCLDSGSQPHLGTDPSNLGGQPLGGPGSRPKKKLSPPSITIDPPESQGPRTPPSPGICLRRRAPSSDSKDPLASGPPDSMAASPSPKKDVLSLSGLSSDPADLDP
(§2) Each inhibitory rate (%) against T-type calcium channel at the evaluation concentration of the present compound (600 μmol/L) is shown in Table 12, in which the parenthesized values are IC50 values (μmol/L)) calculated from the dose-reactive test.

In assay [7] the target is human Cav3.2 (Homo sapiens (Human), UniProt O95180). The assay is described as above. It counts as cell-based. The method, then:
as §1, §2

Assay [8] deals with human Cav3.3 (Homo sapiens (Human), UniProt Q9P0X4). Described as above. It counts as cell-based. Here is the method: as §1, §2

pIC50: −log10 of the molar value.

human Cav3.2, sequence (O95180 whole entry): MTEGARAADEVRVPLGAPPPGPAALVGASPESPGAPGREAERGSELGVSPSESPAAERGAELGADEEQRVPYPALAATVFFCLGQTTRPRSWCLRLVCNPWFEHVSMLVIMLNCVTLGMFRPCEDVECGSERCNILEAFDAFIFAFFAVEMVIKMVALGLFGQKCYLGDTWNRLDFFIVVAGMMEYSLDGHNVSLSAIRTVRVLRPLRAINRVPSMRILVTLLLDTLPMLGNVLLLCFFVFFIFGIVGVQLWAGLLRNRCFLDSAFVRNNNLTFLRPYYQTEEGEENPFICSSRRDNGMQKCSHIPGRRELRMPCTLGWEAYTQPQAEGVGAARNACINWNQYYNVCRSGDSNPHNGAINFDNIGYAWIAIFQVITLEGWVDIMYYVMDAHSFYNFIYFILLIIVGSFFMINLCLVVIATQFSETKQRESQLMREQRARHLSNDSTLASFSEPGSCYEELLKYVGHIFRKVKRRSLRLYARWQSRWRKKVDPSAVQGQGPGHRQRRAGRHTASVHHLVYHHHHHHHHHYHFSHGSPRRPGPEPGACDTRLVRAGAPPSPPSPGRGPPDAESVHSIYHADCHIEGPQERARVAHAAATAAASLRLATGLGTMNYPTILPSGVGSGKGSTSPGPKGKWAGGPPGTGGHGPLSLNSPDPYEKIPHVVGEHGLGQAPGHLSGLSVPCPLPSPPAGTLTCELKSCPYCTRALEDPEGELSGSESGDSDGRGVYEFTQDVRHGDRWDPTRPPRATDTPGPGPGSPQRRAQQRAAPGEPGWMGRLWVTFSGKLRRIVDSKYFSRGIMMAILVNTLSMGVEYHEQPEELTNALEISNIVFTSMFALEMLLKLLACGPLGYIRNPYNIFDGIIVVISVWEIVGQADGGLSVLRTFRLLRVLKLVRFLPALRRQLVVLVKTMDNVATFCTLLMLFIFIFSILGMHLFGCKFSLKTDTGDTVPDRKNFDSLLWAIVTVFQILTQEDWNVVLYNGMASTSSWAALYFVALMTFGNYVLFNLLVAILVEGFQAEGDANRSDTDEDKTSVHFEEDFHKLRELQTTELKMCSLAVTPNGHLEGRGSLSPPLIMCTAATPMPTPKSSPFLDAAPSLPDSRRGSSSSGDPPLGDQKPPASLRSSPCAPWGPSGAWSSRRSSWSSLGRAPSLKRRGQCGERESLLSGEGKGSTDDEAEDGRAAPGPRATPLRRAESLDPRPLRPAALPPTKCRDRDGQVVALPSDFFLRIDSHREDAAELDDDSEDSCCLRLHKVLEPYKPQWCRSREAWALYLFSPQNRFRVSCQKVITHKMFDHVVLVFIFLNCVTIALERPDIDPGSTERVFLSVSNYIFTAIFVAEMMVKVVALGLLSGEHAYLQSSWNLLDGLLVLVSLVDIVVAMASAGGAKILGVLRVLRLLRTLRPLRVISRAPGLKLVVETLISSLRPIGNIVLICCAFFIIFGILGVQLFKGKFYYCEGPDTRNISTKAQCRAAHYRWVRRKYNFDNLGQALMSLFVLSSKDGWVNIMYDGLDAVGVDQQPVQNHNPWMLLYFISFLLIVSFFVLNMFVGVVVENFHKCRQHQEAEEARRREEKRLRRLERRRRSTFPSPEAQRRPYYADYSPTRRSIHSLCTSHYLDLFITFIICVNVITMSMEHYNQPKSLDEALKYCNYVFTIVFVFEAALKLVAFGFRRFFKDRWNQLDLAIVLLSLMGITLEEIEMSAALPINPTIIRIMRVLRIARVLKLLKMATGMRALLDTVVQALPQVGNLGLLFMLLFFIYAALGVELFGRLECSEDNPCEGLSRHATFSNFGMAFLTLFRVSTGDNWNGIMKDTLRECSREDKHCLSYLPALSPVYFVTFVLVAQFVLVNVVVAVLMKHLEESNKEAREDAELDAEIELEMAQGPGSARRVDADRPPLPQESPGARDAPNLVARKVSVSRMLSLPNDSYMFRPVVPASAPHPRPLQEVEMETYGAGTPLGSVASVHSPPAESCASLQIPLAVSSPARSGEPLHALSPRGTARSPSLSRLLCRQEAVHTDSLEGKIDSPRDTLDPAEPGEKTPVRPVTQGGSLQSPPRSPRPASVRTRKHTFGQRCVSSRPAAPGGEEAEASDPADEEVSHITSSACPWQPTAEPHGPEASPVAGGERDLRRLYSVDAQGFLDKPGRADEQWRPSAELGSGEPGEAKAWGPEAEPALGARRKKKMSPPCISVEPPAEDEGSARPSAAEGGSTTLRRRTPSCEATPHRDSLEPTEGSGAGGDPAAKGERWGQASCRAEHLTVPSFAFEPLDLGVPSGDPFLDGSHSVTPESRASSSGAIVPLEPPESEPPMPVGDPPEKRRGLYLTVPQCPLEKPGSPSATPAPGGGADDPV

In the case of `CN1C(=O)CN=C(c2ccccc2)c2cc(Cl)ccc21` [Diazepam, diazepam, reference compound], in assay [1], the “count of the open arm entry” value is given as “increase significantly” and the “time spent in the open arm” value is listed as “increase significantly”.
Regarding `C[C@@H](c1noc2ccccc12)S(N)(=O)=O` [Example 14, (1S)-1-(1,2-benzoxazol-3-yl)ethane-1-sulfonamide], the negative logarithm of the IC50 (pIC50) was below 3.22 in assay [2]; 5.46 in assay [4]; 3.26 in assay [6] (dose-reactive test, read-out: Cav3.1 IC50 (parenthesized)); 3.08 in assay [7] (dose-reactive test, read-out: Cav3.2 IC50 (parenthesized)); 3.05 in assay [8] (dose-reactive test, read-out: Cav3.3 IC50 (parenthesized)). Moreover, in assay [3], the “rotational number in the late phase (100-120 minutes)” value is recorded as “significantly increased the rotational number in the late phase”. For the same molecule, the harmaline-induced tremor intensity entry in assay [5] is given as “inhibited harmaline-induced tremor”. Further, the inhibition at 600 µM in assay [6] (HEK293, 600 μmol/L, read-out: Cav3.1 % inhibitory rate) was 49.6%; in assay [7] (HEK293, 600 μmol/L, read-out: Cav3.2 % inhibitory rate), 33.8%; in assay [8] (HEK293, 600 μmol/L, read-out: Cav3.3 % inhibitory rate) it was 31.8%.
As to `CC(C)NCC(O)COc1cccc2ccccc12` (stereo not drawn) [β-Propranolol, β-propranolol, reference compound], the harmaline-induced tremor intensity result in assay [5] is reported as “significantly inhibited harmaline-induced tremor”.
